ChEMBL document CHEMBL2380238, “Synthesis, spectral and antimicrobial evaluation of some novel 1-methyl-3-alkyl-2,6-diphenylpiperidin-4-one oxime carbonates” (2013)
In brackets after ≈: the same amount, converted by molar mass. Activity calls are given as the source filed them. The rule behind the calls is not given here.

How the values were obtained:
Assay type in all cases: functional
[1] = tested on: Aspergillus flavus; assay: Antifungal activity against Aspergillus flavus
[2] = tested on: Aspergillus flavus; assay: Antifungal activity against Aspergillus flavus after 72 to 96 hrs by broth dilution method
[3] = tested on: Aspergillus niger; assay: Antifungal activity against Aspergillus niger
[4] = tested on: Fusarium; assay: Antifungal activity against Fusarium after 72 to 96 hrs by broth dilution method
[5] = tested on: Fusarium; assay: Antifungal activity against Fusarium
[6] = tested on: Aspergillus niger; assay: Antifungal activity against Aspergillus niger after 72 to 96 hrs by broth dilution method
[7] = tested on: Rhizopus; assay: Antifungal activity against Rhizopus after 72 to 96 hrs by broth dilution method
[8] = tested on: Rhizopus; assay: Antifungal activity against Rhizopus
[9] = tested on: Penicillium; assay: Antifungal activity against Penicillium
[10] = tested on: Penicillium; assay: Antifungal activity against Penicillium after 72 to 96 hrs by broth dilution method
[11] = tested on: Klebsiella pneumoniae; assay: Antibacterial activity against Klebsiella pneumoniae
[12] = tested on: Klebsiella pneumoniae; assay: Antibacterial activity against Klebsiella pneumoniae after 24 hrs by broth dilution method
[13] = tested on: Pseudomonas aeruginosa; assay: Antibacterial activity against Pseudomonas aeruginosa
[14] = tested on: Escherichia coli; assay: Antibacterial activity against Escherichia coli
[15] = tested on: Pseudomonas aeruginosa; assay: Antibacterial activity against Pseudomonas aeruginosa after 24 hrs by broth dilution method
[16] = tested on: Escherichia coli; assay: Antibacterial activity against Escherichia coli after 24 hrs by broth dilution method
[17] = tested on: Bacillus subtilis; assay: Antibacterial activity against Bacillus subtilis
[18] = tested on: Bacillus subtilis; assay: Antibacterial activity against Bacillus subtilis after 24 hrs by broth dilution method
[19] = tested on: Enterococcus faecalis; assay: Antibacterial activity against Streptococcus faecalis
[20] = tested on: Enterococcus faecalis; assay: Antibacterial activity against Streptococcus faecalis after 24 hrs by broth dilution method

| Structure (SMILES) | inhibition zone (IZ) [1] | MIC [2] [µg/mL] | inhibition zone (IZ) [3] | MIC [4] [µg/mL] | inhibition zone (IZ) [5] | MIC [6] [µg/mL] | MIC [7] [µg/mL] | inhibition zone (IZ) [8] [mm] | inhibition zone (IZ) [9] | MIC [10] [µg/mL] | inhibition zone (IZ) [11] | MIC [12] [µg/mL] | inhibition zone (IZ) [13] | inhibition zone (IZ) [14] [mm] | MIC [15] [µg/mL] | MIC [16] [µg/mL] | inhibition zone (IZ) [17] [mm] | MIC [18] [µg/mL] | inhibition zone (IZ) [19] | MIC [20] [µg/mL] |
| --- | --- | --- | --- | --- | --- | --- | --- | --- | --- | --- | --- | --- | --- | --- | --- | --- | --- | --- | --- | --- |
| CCOC(=O)O/N=C1\CC(c2ccccc2)N(C)C(c2ccccc2)C1CC (stereo not given) | inactive | 200 (≈ 526 µM) | inactive | 200 (≈ 526 µM) | inactive | 200 (≈ 526 µM) | 100 (≈ 263 µM) | 12 | inactive | 200 (≈ 526 µM) | inactive | 200 (≈ 526 µM) | inactive | 12 | 200 (≈ 526 µM) | 25 (≈ 65.7 µM) | 12 | 25 (≈ 65.7 µM) | 12 mm | 100 (≈ 263 µM) |
| CC1/C(=N/O)CC(c2ccccc2)N(C)C1c1ccccc1 (stereo not given) | inactive | 200 (≈ 679 µM) | inactive | 200 (≈ 679 µM) | inactive | 200 (≈ 679 µM) | 100 (≈ 340 µM) | 12 | inactive | 200 (≈ 679 µM) | inactive | 200 (≈ 679 µM) | inactive | 12 | 200 (≈ 679 µM) | 100 (≈ 340 µM) | 12 | 100 (≈ 340 µM) | inactive | 200 (≈ 679 µM) |
| CCC1/C(=N/OC(=O)OC(C)Cl)CC(c2ccccc2)N(C)C1c1ccccc1 (stereo not given) | 17 mm | 25 (≈ 60.3 µM) | 17 mm | 12.5 (≈ 30.1 µM) | 22 mm | 25 (≈ 60.3 µM) | 25 (≈ 60.3 µM) | 17 | 17 mm | 25 (≈ 60.3 µM) | 32 mm | 6.25 (≈ 15.1 µM) | 22 mm | 22 | 12.5 (≈ 30.1 µM) | 12.5 (≈ 30.1 µM) | 17 | 25 (≈ 60.3 µM) | 22 mm | 12.5 (≈ 30.1 µM) |
